Measured values as given in patent US8691576B2, “Regeneration and mass propagation of Jatropha curcas through somatic embryogenesis” (Joil (S) Pte Ltd., priority 2008, dated 2014).

Tested on: Jatropha curcas embryogenic calli
Assay: Embryogenic liquid suspension culture
Format: cell-based
Details: liquid medium
Procedure: FIGS. 5A-5D show embryogenic liquid suspension culture. About 50 mg embryogenic calli produced in solid DGA medium were inoculated in 20 ml modified DGA liquid media. Embryos larger than 2 mm were removed before inoculation. Subculture was done every two weeks. Photos were taken after 2 subcultures. FIG. 5A: 20 g/l sucrose, 1 g/l glutamine, 0.5 g/l asparagine, no 2,4-D. FIG. 5B: 20 g/l sucrose, 1 g/l glutamine, 0.5 g/l asparagine, 0.2 g/1 2,4-D. FIG. 5C: 30 g/l sucrose, 1 g/l glutamine, 0.5 g/l asparagine, 0.2 g/1 2,4-D. FIG. 5D: 20 g/l sucrose, 1 g/l glutamine, 0.5 g/l asparagine, 1 g/1 2,4-D. Arrow indicates the non-embryogenic ball-shaped calli. Scale bar represents 1 cm.
Liquid cultures were performed in 65 mm plastic cylinder containers or 250 ml glass conical flasks that were placed in shakers set at 80 rpm, 28° C. constant temperature and 16-8 hours day-light cycles.
Effects 2,4-D and carbon source on establishment of somatic embryogenic liquid suspension culture was investigated. […] At sucrose level ranging from 10-30 g/l, continued culture lead to maturation of the somatic embryo with no new initiation of secondary embryos (FIG. 5A). The somatic embryos thus produced share good synchrony and are excellent materials for re-induction of TIISEs (Refer to Example 13). […] The suspension cultures were stable for months if large embryos were removed. Further, sucrose concentration needs to be reduced below about 20 g/l (compare FIGS. 5B and 5C).

Q: Which “maturation of somatic embryos” value (2,4-D 0.1-0.5 g/l) does the source give for O=C(O)COc1ccc(Cl)cc1Cl [2,4-D, 2,4-dichlorophenoxyacetic acid] here?
A: Its value is “significantly inhibited maturation of somatic embryos”.

Q: And the “calli multiplication and embryogenicity” value (2,4-D higher than 0.5 g/l)?
A: Its value is “calli multiplication and embryogenicity was poor”.
